Test results: ChEMBL document CHEMBL4177638, “Challenges in the development of an M4 PAM preclinical candidate: The discovery, SAR, and biological characterization of a series of azetidine-derived tertiary amides” (Bioorg Med Chem Lett, 2017)
Active and inactive are the calls of the source. No cut-off for these calls is given here.

What was measured:
[1] = biological target: T1, Muscarinic acetylcholine receptor M4 (Homo sapiens) (UniProt P08173); assay: Positive allosteric modulation of human M4 receptor expressed in CHO cells co-expressing Gqi5 assessed as increase in acetylcholine-induced calcium mobilization relative to acetylcholine; assay type: functional, cell-based
T1 sequence (whole entry): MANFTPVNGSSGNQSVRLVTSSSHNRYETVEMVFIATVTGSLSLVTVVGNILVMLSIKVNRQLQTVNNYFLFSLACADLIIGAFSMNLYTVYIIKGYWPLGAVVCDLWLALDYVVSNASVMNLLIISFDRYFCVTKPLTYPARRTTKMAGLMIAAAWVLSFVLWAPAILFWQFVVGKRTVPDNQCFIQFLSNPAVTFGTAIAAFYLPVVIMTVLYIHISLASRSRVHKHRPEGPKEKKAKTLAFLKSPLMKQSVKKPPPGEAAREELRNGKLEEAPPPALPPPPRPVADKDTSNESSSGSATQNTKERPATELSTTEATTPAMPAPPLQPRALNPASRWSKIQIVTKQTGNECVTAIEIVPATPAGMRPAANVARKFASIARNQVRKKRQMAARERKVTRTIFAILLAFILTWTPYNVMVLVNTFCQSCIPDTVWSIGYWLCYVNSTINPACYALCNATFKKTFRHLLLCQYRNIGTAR

[2] = biological target: T2, Muscarinic acetylcholine receptor M4 (Homo sapiens, UniProt P08173); assay: Positive allosteric modulation of human M4 receptor expressed in CHO cells co-expressing Gqi5 assessed as increase in acetylcholine-induced calcium mobilization; assay type: functional, cell-based
T2 sequence (P08173 whole entry): T1 sequence (whole entry)

[3] = biological target: T3, Muscarinic acetylcholine receptor M2 (Homo sapiens) (UniProt P08172); assay: Positive allosteric modulation of human M2 receptor assessed as increase in acetylcholine-induced response relative to acetylcholine; assay type: functional
T3 sequence (whole entry): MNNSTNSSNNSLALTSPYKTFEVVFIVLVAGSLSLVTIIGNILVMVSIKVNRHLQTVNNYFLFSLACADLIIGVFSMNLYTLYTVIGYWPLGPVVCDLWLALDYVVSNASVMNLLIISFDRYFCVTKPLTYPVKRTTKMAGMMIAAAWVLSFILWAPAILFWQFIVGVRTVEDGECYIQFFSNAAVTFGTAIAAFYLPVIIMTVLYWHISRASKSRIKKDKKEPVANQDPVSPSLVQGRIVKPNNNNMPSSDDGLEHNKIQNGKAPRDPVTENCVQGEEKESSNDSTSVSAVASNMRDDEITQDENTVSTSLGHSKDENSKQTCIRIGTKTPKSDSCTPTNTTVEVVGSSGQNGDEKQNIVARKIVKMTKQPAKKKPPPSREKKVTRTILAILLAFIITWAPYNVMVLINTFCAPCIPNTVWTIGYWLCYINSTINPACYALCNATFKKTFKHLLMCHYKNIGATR

[4] = Ratio of unbound brain to plasma concentration in rat; assay type: ADME, cell-free
[5] = Brain to plasma partition coefficient, Kp of the compound in rat; assay type: ADME, cell-free
[6] = biological target: T4, Muscarinic acetylcholine receptor M2 (Homo sapiens, UniProt P08172); assay: (§1) Positive allosteric modulation of human M2 receptor assessed as increase in acetylcholine-induced response; assay type: functional
T4 sequence (P08172 whole entry): T3 sequence (whole entry)

[7] = Oral bioavailability in dog at 10 mg/kg; assay type: ADME, organism-based, Canis lupus familiaris; settings: in vivo
[8] = Elimination half life in Sprague-Dawley rat at 0.1 to 1 mg/kg, iv; assay type: ADME, organism-based; settings: in vivo, read-out: beta t1/2 (converted)
[9] = Aqueous solubility of the compound at pH 7.4; assay type: physicochemical; settings: aqueous medium
[10] = Ratio of unbound brain to plasma concentration in Sprague-Dawley rat at 0.1 to 0.2 mg/kg, iv measured after 0.25 hrs; assay type: ADME, organism-based; settings: read-out: K(p,uu,brain)
[11] = Clearance in Sprague-Dawley rat plasma at 0.1 to 1 mg/kg, iv; assay type: ADME, organism-based
[12] = Brain to plasma partition coefficient, Kp of the compound in Sprague-Dawley rat at 0.1 to 0.2 mg/kg, iv measured after 0.25 hrs; assay type: ADME, organism-based
[13] = biological target: T3, Muscarinic acetylcholine receptor M2 (Homo sapiens); assay: as §1; assay type: functional
[14] = biological target: T5, Muscarinic acetylcholine receptor M5 (Homo sapiens, UniProt P08912); assay: Positive allosteric modulation of human M5 receptor assessed as increase in acetylcholine-induced response; assay type: functional
T5 sequence (P08912 whole entry): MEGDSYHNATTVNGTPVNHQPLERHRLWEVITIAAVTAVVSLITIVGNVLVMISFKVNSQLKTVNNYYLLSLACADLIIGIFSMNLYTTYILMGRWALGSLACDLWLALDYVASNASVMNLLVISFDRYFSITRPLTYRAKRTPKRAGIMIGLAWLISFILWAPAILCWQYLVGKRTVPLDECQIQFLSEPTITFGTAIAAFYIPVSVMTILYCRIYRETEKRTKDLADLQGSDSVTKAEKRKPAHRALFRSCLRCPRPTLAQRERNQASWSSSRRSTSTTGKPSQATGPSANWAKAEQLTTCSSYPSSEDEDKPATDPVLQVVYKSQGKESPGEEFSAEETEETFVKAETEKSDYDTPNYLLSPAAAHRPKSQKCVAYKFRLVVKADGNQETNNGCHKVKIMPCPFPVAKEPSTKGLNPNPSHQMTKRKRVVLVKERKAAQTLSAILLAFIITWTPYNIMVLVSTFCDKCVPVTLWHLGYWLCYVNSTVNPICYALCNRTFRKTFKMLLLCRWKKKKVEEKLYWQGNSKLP

[15] = biological target: Muscarinic acetylcholine receptor M3 (Homo sapiens, UniProt P20309); assay: Positive allosteric modulation of human M3 receptor assessed as increase in acetylcholine-induced response; assay type: functional
Sequence of Muscarinic acetylcholine receptor M3 (P20309 whole entry): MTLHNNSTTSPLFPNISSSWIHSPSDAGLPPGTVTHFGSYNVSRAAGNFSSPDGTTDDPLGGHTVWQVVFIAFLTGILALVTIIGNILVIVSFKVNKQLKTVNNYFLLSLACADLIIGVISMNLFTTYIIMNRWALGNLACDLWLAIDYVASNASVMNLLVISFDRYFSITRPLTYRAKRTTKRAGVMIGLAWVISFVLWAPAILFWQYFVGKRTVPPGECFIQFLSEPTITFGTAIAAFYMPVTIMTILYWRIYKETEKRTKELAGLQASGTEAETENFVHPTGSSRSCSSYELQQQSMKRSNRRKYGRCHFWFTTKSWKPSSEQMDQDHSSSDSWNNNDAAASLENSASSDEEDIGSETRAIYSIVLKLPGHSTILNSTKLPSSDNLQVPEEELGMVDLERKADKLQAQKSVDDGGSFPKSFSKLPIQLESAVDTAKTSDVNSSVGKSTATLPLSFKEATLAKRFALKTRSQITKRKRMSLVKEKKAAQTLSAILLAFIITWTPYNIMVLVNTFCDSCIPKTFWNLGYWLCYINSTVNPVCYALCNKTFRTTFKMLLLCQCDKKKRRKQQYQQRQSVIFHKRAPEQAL

Rattus norvegicus = assay: Antipsychotic activity in rat assessed as reversal of amphetamine-induced hyperlocomotion at 30 mg/kg, po; assay type: functional
[16] = Ratio of EC50 for rat M4 receptor to EC50 for human M4 receptor expressed in CHO cells co-expressing Gqi5; assay type: cell-based
[17] = biological target: T6, Muscarinic acetylcholine receptor M1 (Homo sapiens, UniProt P11229); assay: Positive allosteric modulation of human M1 receptor assessed as increase in acetylcholine-induced response; assay type: functional
T6 sequence (P11229 whole entry): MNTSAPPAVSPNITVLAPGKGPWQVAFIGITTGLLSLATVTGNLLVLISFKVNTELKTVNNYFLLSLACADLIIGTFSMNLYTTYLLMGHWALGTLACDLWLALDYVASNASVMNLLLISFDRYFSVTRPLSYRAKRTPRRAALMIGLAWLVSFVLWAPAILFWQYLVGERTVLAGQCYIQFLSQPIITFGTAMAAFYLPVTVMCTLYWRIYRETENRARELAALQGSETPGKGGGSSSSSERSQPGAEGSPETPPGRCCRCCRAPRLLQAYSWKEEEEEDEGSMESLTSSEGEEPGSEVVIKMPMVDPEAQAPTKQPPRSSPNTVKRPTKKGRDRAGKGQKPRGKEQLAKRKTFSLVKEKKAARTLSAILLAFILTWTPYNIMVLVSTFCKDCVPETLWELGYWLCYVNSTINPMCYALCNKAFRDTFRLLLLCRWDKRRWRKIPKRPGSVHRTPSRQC

Row | SMILES | %max [1] | EC50 [2] | other results
1 | Cc1nnc2sc(C(=O)N3CC(c4ccccc4F)C3)c(N)c2c1C | 75% | 407 nM | 
2 | COC1(c2cccc(F)c2)CN(C(=O)c2sc3nnc(C)c(C)c3c2N)C1 | 36% | 417 nM | 
3 | Cc1nnc2sc(C(=O)N3CC(O)(c4ccccc4)C3)c(N)c2c1C | 30% | 1050 nM | 
4 | COc1ccccc1C1CN(C(=O)c2sc3nnc(C)c(C)c3c2N)C1 | 54% | 2290 nM | 
5 | Cc1nnc2sc(C(=O)N3CC4(CCN(c5cccnc5)C4)C3)c(N)c2c1C | 53 to 57% |  | 
6 | Cc1nnc2sc(C(=O)N3CC(c4ccc(Br)cc4)C3)c(N)c2c1C |  | > 10000 nM | 
7 | Cc1nnc2sc(C(=O)N3CC(C)(F)C3)c(N)c2c1C | 98% | 363 nM | 
8 | Cc1nnc2sc(C(=O)N3CC(c4ccc(Cl)cc4)C3)c(N)c2c1C |  | > 10000 nM | 
9 | Cc1nnc2sc(C(=O)N3CC(c4cccc(F)c4)C3)c(N)c2c1C | 83% | 57 nM | %max [3]: 38%; K(p,uu,brain) [4]: 0.92; Kp [5]: 2.1; EC50 [6]: 2100 nM
10 | Cc1nnc2sc(C(=O)N3CC(c4ccccc4)C3C)c(N)c2c1C (stereo not given) | 45% | 1510 nM | 
11 | Cc1ccccc1C1CN(C(=O)c2sc3nnc(C)c(C)c3c2N)C1 | 72% | 457 nM | 
12 | CCCCC1(F)CN(C(=O)c2sc3nnc(C)c(C)c3c2N)C1 | 85% | 316 nM | 
13 | COc1ccc(C2CN(C(=O)c3sc4nnc(C)c(C)c4c3N)C2)cc1 | 94% | 331 nM | 
14 | Cc1nnc2sc(C(=O)NCc3ccc(S(=O)(=O)C(F)(F)F)cc3)c(N)c2c1C.Cl |  |  | bioavailability [7]: 4.7%
15 | Cc1nnc2sc(C(=O)NCc3ccc(S(=O)(=O)C(F)(F)F)cc3)c(N)c2c1C |  |  | half-life [8]: 2.7 h; solubility [9]: < 0.5 µM; Kp uu at 0.25 h [10]: 1.2; clearance [11]: 1.6 mL/min/kg; Kp at 0.25 h [12]: 0.11
16 | COc1cccc(C2CN(C(=O)c3sc4nnc(C)c(C)c4c3N)C2)c1 |  | > 10000 nM | 
17 | Cc1nnc2sc(C(=O)N3CC(F)(c4ccccn4)C3)c(N)c2c1C | 78% | 2240 nM | 
18 | Cc1nnc2sc(C(=O)N3CC(F)(c4cccc(F)c4)C3)c(N)c2c1C | 67% | 447 nM | 
19 | Cc1nnc2sc(C(=O)N3CC(C4CCCCC4)C3)c(N)c2c1C | 54% | 178 nM | K(p,uu,brain) [4]: 0.71; Kp [5]: 8.46
20 | Cc1nnc2sc(C(=O)N3CC(c4cccs4)C3)c(N)c2c1C | 78% | 200 nM | 
21 | Cc1cccc(C2CN(C(=O)c3sc4nnc(C)c(C)c4c3N)C2)c1 | 83% | 851 nM | 
22 | Cc1nnc2sc(C(=O)N3CC(c4cccc(F)c4)C3C)c(N)c2c1C (stereo not given) | 45% | 1460 nM | 
23 | Cc1ccc(C2CN(C(=O)c3sc4nnc(C)c(C)c4c3N)C2)cc1 | 82% | 1100 nM | 
24 | Cc1nnc2sc(C(=O)N3CC(c4ccc(F)cc4)C3)c(N)c2c1C | 80% | 151 nM | K(p,uu,brain) [4]: 1.3; Kp [5]: 2.3; Activity [13]: inactive
25 | Cc1nnc2sc(C(=O)N3CC(c4ccccc4)C3)c(N)c2c1C | 65% | 72 nM | EC50 [14]: > 10000 nM; EC50 [15]: > 10000 nM; K(p,uu,brain) [4]: 2.1; Kp [5]: 2.6; Activity (Rattus norvegicus): 32%; EC50 [6]: > 10000 nM; Ratio EC50 [16]: 2; EC50 [17]: > 10000 nM
